6 molecules from BindingDB's records for doi:10.1021/jm050060l (University of Perugia Via Del Liceo, 2021) can be followed below.

The target in assay [1] is T1, Neuropeptide Y receptor type 1 (Homo sapiens, UniProt P25929).
T1 sequence (P25929 whole entry): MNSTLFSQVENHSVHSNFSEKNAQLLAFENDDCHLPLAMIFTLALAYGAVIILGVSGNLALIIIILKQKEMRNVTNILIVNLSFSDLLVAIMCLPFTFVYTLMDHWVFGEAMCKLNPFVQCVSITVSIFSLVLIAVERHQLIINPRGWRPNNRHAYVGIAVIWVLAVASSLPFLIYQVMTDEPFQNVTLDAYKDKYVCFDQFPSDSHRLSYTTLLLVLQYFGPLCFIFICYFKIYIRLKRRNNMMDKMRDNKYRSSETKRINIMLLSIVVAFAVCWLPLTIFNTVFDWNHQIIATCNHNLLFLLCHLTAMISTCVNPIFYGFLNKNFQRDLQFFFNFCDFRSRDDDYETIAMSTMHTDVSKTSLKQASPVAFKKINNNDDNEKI
As to the kind of experiment: Displacement of 125I-PYY from human neuropeptide Y Y1 receptor expressed in human SK-N-MC cell membrane assessed as inhibition constant incubated for 1 hrs by competitive binding assay. Background: In a radioligand displacement assay an active substance lowers the binding of a labelled ligand.

Assay [2] concerns the target T2, C-X-C chemokine receptor type 2 (Homo sapiens, UniProt P25025).
T2 sequence (P25025 whole entry): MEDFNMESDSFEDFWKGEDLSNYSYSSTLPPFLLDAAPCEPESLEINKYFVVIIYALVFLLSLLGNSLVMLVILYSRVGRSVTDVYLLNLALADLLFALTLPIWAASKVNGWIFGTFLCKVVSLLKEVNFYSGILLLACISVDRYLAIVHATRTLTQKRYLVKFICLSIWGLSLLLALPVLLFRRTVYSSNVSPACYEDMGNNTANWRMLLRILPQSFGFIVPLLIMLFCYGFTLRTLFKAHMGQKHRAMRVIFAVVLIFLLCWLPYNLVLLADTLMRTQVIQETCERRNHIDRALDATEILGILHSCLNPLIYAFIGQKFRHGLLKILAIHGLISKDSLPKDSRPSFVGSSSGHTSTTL
As to the kind of experiment: Antagonist activity at CXCR2 (unknown origin).

The target of assay [3] is T3, Bifunctional epoxide hydrolase 2 (Homo sapiens, UniProt P34913).
T3 sequence (P34913 whole entry): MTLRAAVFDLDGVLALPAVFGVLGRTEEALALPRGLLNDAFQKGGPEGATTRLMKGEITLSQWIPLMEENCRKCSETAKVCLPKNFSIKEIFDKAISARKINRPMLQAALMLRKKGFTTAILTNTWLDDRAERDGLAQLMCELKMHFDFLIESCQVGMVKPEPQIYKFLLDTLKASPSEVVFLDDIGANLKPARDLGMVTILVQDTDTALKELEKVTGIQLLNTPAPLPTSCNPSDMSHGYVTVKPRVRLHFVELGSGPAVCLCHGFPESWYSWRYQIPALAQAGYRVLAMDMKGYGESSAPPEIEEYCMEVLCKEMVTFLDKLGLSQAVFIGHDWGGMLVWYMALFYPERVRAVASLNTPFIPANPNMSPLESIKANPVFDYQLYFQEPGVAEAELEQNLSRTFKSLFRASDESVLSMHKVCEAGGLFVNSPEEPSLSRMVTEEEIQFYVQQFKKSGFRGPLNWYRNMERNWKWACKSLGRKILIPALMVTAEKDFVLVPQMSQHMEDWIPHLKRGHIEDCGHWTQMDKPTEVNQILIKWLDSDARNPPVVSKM
As to the kind of experiment: Inhibition of recombinant soluble epoxide hydrolase (unknown origin) using [3H]1,3-diphenyl-trans-propene oxide as substrate assessed as inhibition constant incubated for 5 mins.

Each structure is given as a SMILES string.

In the case of `COC(=O)C1=C(C)NC(C)=C(C(=O)OC)C1c1cccc(NC(=O)NCCCN2CCC(c3cccc(OC)c3)CC2)c1`, in assay [1], the inhibition constant (Ki) – broadly, the dissociation constant of the complex between target and ligand, obtained from inhibition or displacement – turned out to be 3.3 nM. As for `COC(=O)C1=CNC(C)=C(C(=O)OC)C1c1cccc(N/C(=N/C#N)NCCCN2CCC(c3cccc(OC)c3)CC2)c1` (stereo unspecified), the inhibition constant (Ki) in assay [1] was 5.1 nM. Regarding `COC(=O)C1=CNC(C)=C(C(=O)OC)C1c1cccc(Nc2nnc(CN3CCC(c4cccc(OC)c4)CC3)o2)c1` (stereo unspecified), the Ki in assay [1] is 99 nM. On the same count and under the same terms, to `COC(=O)C1=CNC(C)=C(C(=O)OC)C1c1cccc(Nc2c(NCCCN3CCC(c4cccc(OC)c4)CC3)c(=O)c2=O)c1` (stereo unspecified) belongs 21 nM.

`CN(C)C(=O)c1cccc(Nc2c(Nc3ccccc3)c(=O)c2=O)c1O` [3-(3,4-dioxo-2-(phenylamino)cyclobut-1-enylamino)-2-hydroxy-N,N-dimethylbenzamide]: in assay [2], it took 2 nM to reach half-maximal inhibition (IC50). On to `CCCCCCCCCCCCNC(=O)NC1CCCCC1` [US8815951, 297], for which the Ki in assay [3] turned out to be 7 nM.
